Key:
Assay type in all cases: in vivo
[1] = test system: MERAN (Mercurialis annua); experiment: post-emergence greenhouse test; details: 7.5 g ai/ha
Source text: (§1) For the post-emergence treatment, the test plants were first grown to a height of 3 to 20 cm, depending on the plant habit, and only then treated. Here, the herbicidal compositions were suspended or emulsified in water as distribution medium and sprayed using finely distributing nozzles.
(§2) The respective herbicides A and/or safener were formulated as 10% by weight strength suspension concentrate and introduced to the spray liquor with the amount of solvent system used for applying the active compound. Herbicide B and/or safener were used as commercially available formulations and introduced to the spray liquor with the amount of solvent system used for applying the active compound. In the examples, the solvent used was water.
(§3) The test period extended over 20 days. During this time, the plants were tended, and their response to the treatments with active compound was evaluated.
(§4) In the following experiments, the herbicidal activity for the individual herbicide compounds (solo application) and of the mixture was assessed 8 days after treatment (8 DAT) and/or 20 days after treatment (20 DAT).
(§5) The evaluation for the damage caused by the chemical compositions was carried out using a scale from 0 to 100%, compared to the untreated control plants. Here, 0 means no damage and 100 means complete destruction of the plants.

[2] = test system: CHEAL (Chenopodium album); experiment: post-emergence greenhouse test; details: 15 g ai/ha
Source text: as §1, §2, §3, §4, §5

[3] = test system: AMBEL (Ambrosia artemisifolia); experiment: post-emergence greenhouse test; details: 3.75 g ai/ha
Source text: as §1, §2, §3, §4, §5

[4] = test system: LOLMU (Lolium multiflorum); experiment: post-emergence greenhouse test; details: 3.75 g ai/ha
Source text: as §1, §2, §3, §4, §5

[5] = test system: AMARE (Amaranthus retroflexus); experiment: pre-emergence greenhouse test; details: for observed activity in % destruction: pre-emergence
Source text: (§6) For the pre-emergence treatment, directly after sowing the active compounds, which had been suspended or emulsified in water, were applied by means of finely distributed nozzles. The containers were irrigated gently to promote germination and growth and subsequently covered with transparent plastic hoods until plant had rooted. This cover caused uniform germination of the tests plants, unless this was adversely affected by active compounds.
as §2, §3, §4, §5

[6] = test system: COMBE (Commelina benghalensis); experiment: pre-emergence greenhouse test; details: for observed activity in % destruction: pre-emergence
Source text: as §6, §2, §3, §4, §5

SETVI (Setaria viridis) = experiment: pre-emergence greenhouse test; details: for observed activity in % destruction: pre-emergence
Source text: as §6, §2, §3, §4, §5

[7] = test system: PANDI (Panicum dichotomiflorum); experiment: pre-emergence greenhouse test; details: pre-emergence
Source text: as §6, §2, §3, §4, §5

SOLNI (Solanum nigrum) = experiment: pre-emergence greenhouse test
Source text: as §6, §2, §3, §4, §5

[8] = test system: CCHEC (Cenchrus echinatus); experiment: pre-emergence greenhouse test
Source text: as §6, §2, §3, §4, §5

[9] = test system: BRAPL (Brachiaria plantaginea); experiment: pre-emergence greenhouse test; details: pre-emergence, 15 g ai/ha
Source text: as §6, §2, §3, §4, §5

[10] = test system: AMBEL (Ambrosia artemisifolia); experiment: pre-emergence greenhouse test
Source text: as §6, §2, §3, §4, §5

ERBVI = experiment: pre-emergence greenhouse test
Source text: as §6, §2, §3, §4, §5

PHBPU (Ipomoea purpurea) = experiment: pre-emergence greenhouse test; details: PHBPU pre-emergence 15 g ai/ha
Source text: as §6, §2, §3, §4, §5

[11] = test system: PANMI (Panicum milliaceum); experiment: pre-emergence greenhouse test
Source text: as §6, §2, §3, §4, §5

[12] = test system: ECHCG (Echinochloa crus-galli); experiment: pre-emergence greenhouse test; details: for observed activity in % destruction: pre-emergence
Source text: as §6, §2, §3, §4, §5

[13] = test system: ALOMY (Alopecurus myosuroides); experiment: pre-emergence greenhouse test; details: for observed activity in % destruction: pre-emergence
Source text: as §6, §2, §3, §4, §5

## CC(C)C1(C)N=C(c2nc3ccccc3cc2C(=O)O)NC1=O (centres unmarked) [imazaquin]
[1]; 8 DAT
  observed activity in % destruction: 20%
[1]; 20 DAT
  observed activity in % destruction: 0%
[2]; 8 DAT
  observed activity in % destruction: 20%
[2]; 20 DAT
  observed activity in % destruction: 10%
[3]; 8 DAT
  observed activity in % destruction: 20%
[3]; 20 DAT
  observed activity in % destruction: 20%
[4]; 8 DAT
  observed activity in % destruction: 0%
[4]; 20 DAT
  observed activity in % destruction: 0%
[5]; AMARE pre-emergence 3.75 g ai/ha
  observed % destruction 20 DAT: 50%
[5]; AMARE pre-emergence 15 g ai/ha
  observed % destruction 20 DAT: 70%
[5]; 3.75 g ai/ha, 8 DAT
  observed activity in % destruction: 40%
[5]; 3.75 g ai/ha, 20 DAT
  observed activity in % destruction: 50%
[5]; 7.5 g ai/ha, 8 DAT
  observed activity in % destruction: 50%
[5]; 7.5 g ai/ha, 20 DAT
  observed activity in % destruction: 60%
[6]; COMBE pre-emergence 3.75 g ai/ha
  observed % destruction 20 DAT: 35%
[6]; COMBE pre-emergence 7.5 g ai/ha
  observed % destruction 20 DAT: 45%
[6]; 3.75 g ai/ha, 8 DAT
  observed activity in % destruction: 20%
[6]; 3.75 g ai/ha, 20 DAT
  observed activity in % destruction: 35%
[6]; 7.5 g ai/ha, 8 DAT
  observed activity in % destruction: 40%
[6]; 7.5 g ai/ha, 20 DAT
  observed activity in % destruction: 45%
[6]; 15 g ai/ha, 8 DAT
  observed activity in % destruction: 50%
[6]; 15 g ai/ha, 20 DAT
  observed activity in % destruction: 70%
SETVI (Setaria viridis); SETVI pre-emergence 15 g ai/ha
  observed % destruction 20 DAT: 75%
SETVI (Setaria viridis); 3.75 g ai/ha, 8 DAT
  observed activity in % destruction: 30%
SETVI (Setaria viridis); 3.75 g ai/ha, 20 DAT
  observed activity in % destruction: 30%
SETVI (Setaria viridis); 15 g ai/ha, 8 DAT
  observed activity in % destruction: 65%
SETVI (Setaria viridis); 15 g ai/ha, 20 DAT
  observed activity in % destruction: 75%
[7]; 3.75 g ai/ha, 8 DAT
  observed activity in % destruction: 0%
[7]; 3.75 g ai/ha, 20 DAT
  observed activity in % destruction: 45%
[7]; 7.5 g ai/ha, 8 DAT
  observed activity in % destruction: 20%
[7]; 7.5 g ai/ha, 20 DAT
  observed activity in % destruction: 75%
[7]; 15 g ai/ha, 8 DAT
  observed activity in % destruction: 40%
[7]; 15 g ai/ha, 20 DAT
  observed activity in % destruction: 80%
SOLNI (Solanum nigrum); SOLNI pre-emergence 3.75 g ai/ha
  observed % destruction 20 DAT: 40%
SOLNI (Solanum nigrum); SOLNI pre-emergence 7.5 g ai/ha
  observed % destruction 20 DAT: 70%
SOLNI (Solanum nigrum); SOLNI pre-emergence 15 g ai/ha
  observed % destruction 20 DAT: 85%
[8]; CCHEC pre-emergence 3.75 g ai/ha
  observed % destruction 20 DAT: 20%
[8]; CCHEC pre-emergence 7.5 g ai/ha
  observed % destruction 20 DAT: 20%
[8]; CCHEC pre-emergence 15 g ai/ha
  observed % destruction 20 DAT: 35%
[9]; 8 DAT
  observed activity in % destruction: 20%
[9]; 20 DAT
  observed activity in % destruction: 60%
[10]; AMBEL pre-emergence 3.75 g ai/ha
  observed % destruction 20 DAT: 50%
[10]; AMBEL pre-emergence 7.5 g ai/ha
  observed % destruction 20 DAT: 60%
[10]; AMBEL pre-emergence 15 g ai/ha
  observed % destruction 20 DAT: 80%
ERBVI; ERBVI pre-emergence 3.75 g ai/ha
  observed % destruction 20 DAT: 0%
ERBVI; ERBVI pre-emergence 7.5 g ai/ha
  observed % destruction 20 DAT: 20%
PHBPU (Ipomoea purpurea)
  observed % destruction 20 DAT: 40%
[11]; PANMI pre-emergence 3.75 g ai/ha
  observed % destruction 20 DAT: 30%
[11]; PANMI pre-emergence 7.5 g ai/ha
  observed % destruction 20 DAT: 40%
[11]; PANMI pre-emergence 15 g ai/ha
  observed % destruction 20 DAT: 45%
[12]; ECHCG pre-emergence 3.75 g ai/ha
  observed % destruction 20 DAT: 0%
[12]; ECHCG pre-emergence 7.5 g ai/ha
  observed % destruction 20 DAT: 0%
[12]; ECHCG pre-emergence 15 g ai/ha
  observed % destruction 20 DAT: 20%
[12]; 7.5 g ai/ha, 8 DAT
  observed activity in % destruction: 0%
[12]; 7.5 g ai/ha, 20 DAT
  observed activity in % destruction: 0%
[12]; 15 g ai/ha, 8 DAT
  observed activity in % destruction: 20%
[12]; 15 g ai/ha, 20 DAT
  observed activity in % destruction: 20%
[13]; ALOMY pre-emergence 15 g ai/ha
  observed % destruction 20 DAT: 75%
[13]; 3.75 g ai/ha, 8 DAT
  observed activity in % destruction: 0%
[13]; 3.75 g ai/ha, 20 DAT
  observed activity in % destruction: 30%
[13]; 15 g ai/ha, 8 DAT
  observed activity in % destruction: 30%
[13]; 15 g ai/ha, 20 DAT
  observed activity in % destruction: 75%

Reference: patent US20110015067A1, “Herbicidal Compositions Comprising Pyroxasulfone” (BASF SE, priority 2008, published 2011)
